Assay results reported in PubChem BioAssay AID2060617 (Molecular Pharmacology Branch, DTP, NCI, 2025).
“And” between values parts separate entries of the source, which are not always exact repeats. Equal values may be shown once.

Test system: 485368-065-R4-J2-PDC spheroids with HUVEC/MSC, viability
Assay: Anticancer human tumor 485368-065-R4-J2-PDC patient-derived pancreatic carcinoma cell line growth inhibition [CLK]
Settings: for viability, T/C: stronger effect = lower value
Summary of the method: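 Patient-derived tumor cells grown as complex spheroids with HUVEC endothelial cells and mesenchymal stem cells, treated with drug combinations. Concentrations descend in half-log steps from near clinical Cmax, or from 10 microM if Cmax unknown.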

[1] = curve of first compound, second compound 0.0316 µM
[2] = curve of first compound, second compound 0.1 µM
[3] = curve of first compound, second compound 0.316 µM
[4] = curve of first compound, second compound 1 µM
[5] = curve of first compound, second compound 3.16 µM
[6] = curve of first compound, second compound 10 µM
[7] = second compound 0.0316 µM, first compound 0.0316 µM
[8] = second compound 0.0316 µM, first compound 0.1 µM
[9] = second compound 0.0316 µM, first compound 0.316 µM
[10] = second compound 0.0316 µM, first compound 1 µM
[11] = second compound 0.0316 µM, first compound 3.16 µM
[12] = second compound 0.0316 µM, first compound 10 µM
[13] = second compound 0.1 µM, first compound 0.0316 µM
[14] = second compound 0.1 µM, first compound 0.1 µM
[15] = second compound 0.1 µM, first compound 0.316 µM
[16] = second compound 0.1 µM, first compound 1 µM
[17] = second compound 0.1 µM, first compound 3.16 µM
[18] = second compound 0.1 µM, first compound 10 µM
[19] = second compound 0.316 µM, first compound 0.0316 µM
[20] = second compound 0.316 µM, first compound 0.1 µM
[21] = second compound 0.316 µM, first compound 0.316 µM
[22] = second compound 0.316 µM, first compound 1 µM
[23] = second compound 0.316 µM, first compound 3.16 µM
[24] = second compound 0.316 µM, first compound 10 µM
[25] = second compound 1 µM, first compound 0.0316 µM
[26] = second compound 1 µM, first compound 0.1 µM
[27] = second compound 1 µM, first compound 0.316 µM
[28] = second compound 1 µM, first compound 1 µM
[29] = second compound 1 µM, first compound 3.16 µM
[30] = second compound 1 µM, first compound 10 µM
[31] = second compound 3.16 µM, first compound 0.0316 µM
[32] = second compound 3.16 µM, first compound 0.1 µM
[33] = second compound 3.16 µM, first compound 0.316 µM
[34] = second compound 3.16 µM, first compound 1 µM
[35] = second compound 3.16 µM, first compound 3.16 µM
[36] = second compound 3.16 µM, first compound 10 µM
[37] = second compound 10 µM, first compound 0.0316 µM
[38] = second compound 10 µM, first compound 0.1 µM
[39] = second compound 10 µM, first compound 0.316 µM
[40] = second compound 10 µM, first compound 1 µM
[41] = second compound 10 µM, first compound 3.16 µM
[42] = second compound 10 µM, first compound 10 µM
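Further: spheroids exposed to compounds for seven days.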
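Wherever viability, T/C is given: 100% = DMSO vehicle control wells.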

## O=C(c1cc(Cc2n[nH]c(=O)c3ccccc23)ccc1F)N1CCN(C(=O)C2CC2)CC1 + CNC(=O)c1ccc(Nc2nc(OC3CCCC3)c3c(-c4ccc5nc(C)oc5c4)c[nH]c3n2)c(OC)c1
[1]
  IC50: > 10 µM
[2]
  IC50: > 10 µM
[3]
  IC50: > 10 µM
[4]
  IC50: > 10 µM
[5]
  IC50: > 10 µM
[6]
  IC50: > 10 µM
[7]
  viability, T/C: 88%
[8]
  viability, T/C: 101%
[9]
  viability, T/C: 94.5%
[10]
  viability, T/C: 102%
[11]
  viability, T/C: 106%
[12]
  viability, T/C: 100%
[13]
  viability, T/C: 97.5%
[14]
  viability, T/C: 106%
[15]
  viability, T/C: 104%
[16]
  viability, T/C: 106%
[17]
  viability, T/C: 101%
[18]
  viability, T/C: 86.1%
[19]
  viability, T/C: 87.9%
[20]
  viability, T/C: 91%
[21]
  viability, T/C: 91.6%
[22]
  viability, T/C: 83.7%
[23]
  viability, T/C: 84.3%
[24]
  viability, T/C: 81.7%
[25]
  viability, T/C: 83.6%
[26]
  viability, T/C: 83.3%
[27]
  viability, T/C: 86.2%
[28]
  viability, T/C: 78.3%
[29]
  viability, T/C: 78.8%
[30]
  viability, T/C: 71.8%
[31]
  viability, T/C: 75.9%
[32]
  viability, T/C: 77.6%
[33]
  viability, T/C: 72.9%
[34]
  viability, T/C: 73.5%
[35]
  viability, T/C: 69.6%
[36]
  viability, T/C: 68.2%
[37]
  viability, T/C: 76.3%
[38]
  viability, T/C: 86.9%
[39]
  viability, T/C: 77.5%
[40]
  viability, T/C: 76.5%
[41]
  viability, T/C: 77.3%
[42]
  viability, T/C: 59.3%

## C=CC(=O)Nc1cc(Nc2nccc(-c3cn(C)c4ccccc34)n2)c(OC)cc1N(C)CCN(C)C
Compound 0.000949 µM
  viability, T/C: 109% and 99.5%
Compound 0.003 µM
  viability, T/C: 97.1% and 97.7%
Compound 0.00949 µM
  viability, T/C: 97.5% and 83.8%
Compound 0.03 µM
  viability, T/C: 104% and 97.5%
Compound 0.0949 µM
  viability, T/C: 110% and 96.7%
Compound 0.3 µM
  viability, T/C: 107% and 99.8%
Curve of compound
  IC50: > 0.3 µM

## C=CC(=O)Nc1cc(Nc2nccc(-c3cn(C)c4ccccc34)n2)c(OC)cc1N(C)CCN(C)C + CN1CCN(c2cc(C(=O)Nc3cc4cc(-c5cnn(C)c5)ccc4cn3)ccn2)CC1
[1]
  IC50: > 0.3 µM
[2]
  IC50: > 0.3 µM
[3]
  IC50: > 0.3 µM
[4]
  IC50: < 0.000949 µM
[5]
  IC50: < 0.000949 µM
[6]
  IC50: < 0.000949 µM
Second compound 0.0316 µM, first compound 0.000949 µM
  viability, T/C: 106%
Second compound 0.0316 µM, first compound 0.003 µM
  viability, T/C: 113%
Second compound 0.0316 µM, first compound 0.00949 µM
  viability, T/C: 99.1%
Second compound 0.0316 µM, first compound 0.03 µM
  viability, T/C: 101%
Second compound 0.0316 µM, first compound 0.0949 µM
  viability, T/C: 103%
Second compound 0.0316 µM, first compound 0.3 µM
  viability, T/C: 100%
Second compound 0.1 µM, first compound 0.000949 µM
  viability, T/C: 114%
Second compound 0.1 µM, first compound 0.003 µM
  viability, T/C: 113%
Second compound 0.1 µM, first compound 0.00949 µM
  viability, T/C: 112%
Second compound 0.1 µM, first compound 0.03 µM
  viability, T/C: 113%
Second compound 0.1 µM, first compound 0.0949 µM
  viability, T/C: 105%
Second compound 0.1 µM, first compound 0.3 µM
  viability, T/C: 103%
Second compound 0.316 µM, first compound 0.000949 µM
  viability, T/C: 75.7%
Second compound 0.316 µM, first compound 0.003 µM
  viability, T/C: 83.8%
Second compound 0.316 µM, first compound 0.00949 µM
  viability, T/C: 84.6%
Second compound 0.316 µM, first compound 0.03 µM
  viability, T/C: 85.3%
Second compound 0.316 µM, first compound 0.0949 µM
  viability, T/C: 82.7%
Second compound 0.316 µM, first compound 0.3 µM
  viability, T/C: 74.2%
Second compound 1 µM, first compound 0.000949 µM
  viability, T/C: 1.06%
Second compound 1 µM, first compound 0.003 µM
  viability, T/C: 1.02%
Second compound 1 µM, first compound 0.00949 µM
  viability, T/C: 0.96%
Second compound 1 µM, first compound 0.03 µM
  viability, T/C: 0.9%
Second compound 1 µM, first compound 0.0949 µM
  viability, T/C: 1.6%
Second compound 1 µM, first compound 0.3 µM
  viability, T/C: 0.54%
Second compound 3.16 µM, first compound 0.000949 µM
  viability, T/C: 1.42%
Second compound 3.16 µM, first compound 0.003 µM
  viability, T/C: 2.3%
Second compound 3.16 µM, first compound 0.00949 µM
  viability, T/C: 1.16%
Second compound 3.16 µM, first compound 0.03 µM
  viability, T/C: 2.05%
Second compound 3.16 µM, first compound 0.0949 µM
  viability, T/C: 2.29%
Second compound 3.16 µM, first compound 0.3 µM
  viability, T/C: 2.5%
Second compound 10 µM, first compound 0.000949 µM
  viability, T/C: 1.61%
Second compound 10 µM, first compound 0.003 µM
  viability, T/C: 3.07%
Second compound 10 µM, first compound 0.00949 µM
  viability, T/C: 1.3%
Second compound 10 µM, first compound 0.03 µM
  viability, T/C: 1.38%
Second compound 10 µM, first compound 0.0949 µM
  viability, T/C: 2.42%
Second compound 10 µM, first compound 0.3 µM
  viability, T/C: 2.16%

## CC(Nc1ccc2c(c1)OCCn1cc(N3C(=O)OCC3C(F)F)nc1-2)C(N)=O (stereo not drawn) + CNC(=O)c1ccc(Nc2nc(OC3CCCC3)c3c(-c4ccc5nc(C)oc5c4)c[nH]c3n2)c(OC)c1
[1]
  IC50: > 10 µM
[2]
  IC50: > 10 µM
[3]
  IC50: > 10 µM
[4]
  IC50: 2.51 µM
[5]
  IC50: 0.368 µM
[6]
  IC50: 0.4 µM
[7]
  viability, T/C: 93.5%
[8]
  viability, T/C: 119%
[9]
  viability, T/C: 105%
[10]
  viability, T/C: 97.2%
[11]
  viability, T/C: 90.4%
[12]
  viability, T/C: 79.3%
[13]
  viability, T/C: 92.3%
[14]
  viability, T/C: 116%
[15]
  viability, T/C: 102%
[16]
  viability, T/C: 89.8%
[17]
  viability, T/C: 75.2%
[18]
  viability, T/C: 67.5%
[19]
  viability, T/C: 76.8%
[20]
  viability, T/C: 82.1%
[21]
  viability, T/C: 71.1%
[22]
  viability, T/C: 63.8%
[23]
  viability, T/C: 63.3%
[24]
  viability, T/C: 54.1%
[25]
  viability, T/C: 81.8%
[26]
  viability, T/C: 64.8%
[27]
  viability, T/C: 63.2%
[28]
  viability, T/C: 57.8%
[29]
  viability, T/C: 47.5%
[30]
  viability, T/C: 43.7%
[31]
  viability, T/C: 68.2%
[32]
  viability, T/C: 59%
[33]
  viability, T/C: 50%
[34]
  viability, T/C: 45.8%
[35]
  viability, T/C: 38.7%
[36]
  viability, T/C: 36.6%
[37]
  viability, T/C: 61%
[38]
  viability, T/C: 56.6%
[39]
  viability, T/C: 50.1%
[40]
  viability, T/C: 45.5%
[41]
  viability, T/C: 41.5%
[42]
  viability, T/C: 33.8%
